# Experimental data reported in patent US9994528B2, “Certain amino-pyridines and amino-triazines, compositions thereof, and methods for their use” (Cytokinetics, Inc., priority 2010, dated 2018).
# Test system: rabbit skeletal myofibrils (approximately 90% fast fibers)
# Assay: Activation of fast skeletal myofibrils (PUMA coupled-enzyme ATPase assay)
# Assay type: biochemical
# Settings: AC1.4 = concentration at which the compound increased the enzymatic activity by 40%; myofibril suspension at calcium level pCa25; PM12 buffer pH 6.8
# Procedure: Preparation of fast skeletal myofibrils. Rabbit skeletal myofibrils were prepared based upon the method of Herrmann et al. (Biochem. 32(28):7255-7263(1993). Myofibrils were prepared from rabbit psoas muscle purchased from Pel-Freez Biologicals (Arkansas) within 2 days of ordering, stored on ice. Minced muscle was homogenized in 10 volumes of ice-cold “standard” buffer (50 mM Tris, pH 7.4, 0.1 M potassium acetate, 5 mM KCl, 2 mM DTT, 0.2 mM PMSF, 10 μM leupeptin, 5 μM pepstatin, and 0.5 mM sodium azide) containing 5 mM EDTA and 0.5% Triton X-100 using an Omni-Macro homogenizer. Myofibrils were recovered by low speed centrifugation (3000 rpm for 10 minutes) and washed 2 times in the Triton X-100 containing buffer to ensure removal of cellular membrane. Following the Triton washes, myofibrils were washed 3 times in “standard” buffer containing 2 mM magnesium acetate. A final wash in assay buffer (12 mM PIPES, pH 6.8, 60 mM KCl, 1 mM DTT) was performed and brought to 10% sucrose for flash freezing in liquid nitrogen and storage at −80° C.
# Activation of Fast Skeletal Myofibrils. Fast fiber activators were identified by measuring the enzymatic activity of muscle myofibril preparations using the proprietary PUMA™ (see, e.g., U.S. Pat. Nos. 6,410,254, 6,743,599, 7,202,051, and 7,378,254) assay system. Myofibril preparations consisted of rabbit skeletal muscle (approximately 90% fast fibers) that had been mechanically homogenized and washed with a detergent (triton X-100) to remove cellular membranes. This preparation retained all of the sarcomeric components in a native conformation and the enzymatic activity was still regulated by calcium. Compounds were tested using a myofibril suspension and a level of calcium sufficient to increase enzymatic activity of the myofibrils to 25% of their maximal rate (termed pCa25). Enzymatic activity was tracked via a pyruvate kinase and lactate dehydrogenase-coupled enzyme system. This assay regenerates myosin-produced ADP into ATP by oxidizing NADH, producing an absorbance change at 340 nm. The buffering system was 12 mM Pipes, 2 mM MgCl2, 1 mM DTT at pH 6.8 (PM12 buffer).
# Using procedures similar to those described herein, utilizing reagents and intermediates commercially available (e.g., Sigma-Aldrich,) or readily synthesized by one of skill in the art, the compounds in Table 2 were synthesized, characterized and tested. AC1.4 values were determined according to the procedure described in Example 25, and the reported median AC1.4 values are as follows: A=<1 uM; B=1-10 uM; C=10-20 uM; D=>20 uM.
row,Structure (SMILES),Mean AC1.4
1,"CC(C)(Nc1ncc(-c2ccc3[nH][nH]c(=O)c3c2)nn1)c1ncccc1F [5-(3-{[1-(3-fluoro(2-pyridyl))-isopropyl]amino}-1,2,4-triazin-6-yl)-1H-2-hydroindazol-3-one]",B (B=1-10 uM)
2,CC(C)(CNc1ccc(C(N)=O)cn1)c1ccc(F)cc1 [6-{[2-(4-f1uorophenyl)-2-methylpropyl]amino}pyridine-3-carboxamide],C (C=10-20 uM)
3,CC(C)(CNc1ccc(C#N)cn1)c1ccc(F)cc1 [6-{[2-(4-fluorophenyl)-2-methylpropyl]amino}pyridine-3-carbonitrile],C (C=10-20 uM)
4,c1ccc(-c2ccnc(NC3(c4ccccc4)CCC3)c2)cc1 [(4-phenyl(2-pyridyl))(phenylcyclobutyl)amine],C (C=10-20 uM)
5,c1ccc(-c2ccc(NC3(c4ccccc4)CCC3)nc2)cc1 [(5-phenyl(2-pyridyl))(phenylcyclobutyl)amine],B (B=1-10 uM)
6,"CC(C)(CNc1ncc(-c2ccc3[nH]ncc3c2)nn1)c1ncccc1F [(6-(1H-indazol-5-yl)(1,2,4-triazin-3-yl))[2-(3-fluoro(2-pyridyl))-2-methylpropyl]amine]",C (C=10-20 uM)
7,"Fc1cccnc1C1(CNc2ncc(-c3ccc4[nH]ncc4c3)nn2)CCC1 [(6-(1H-indazol-5-yl)(1,2,4-triazin-3-yl)){[(3-fluoro(2-pyridyl))cyclobutyl]methyl}amine]",B (B=1-10 uM)
8,CC(C)(CNc1cccc(Br)n1)c1ccc(F)cc1 [(6-bromo(2-pyridyl))[2-(4-fluorophenyl)-2-methylpropyl]amine],C (C=10-20 uM)
9,c1ccc(-c2cccc(NC3(c4ccccc4)CCC3)n2)cc1 [(6-phenyl(2-pyridyl))(phenylcyclobutyl)amine],D (D=>20 uM)
10,"CC(C)(Nc1ncc(-c2cc(C(=O)NC[C@H](O)CO)ccc2F)nn1)c1ncccc1F [N-((2S)-2,3-dihydroxypropyl)[4-fluoro-3-(3-{[1-(3-fluoro(2-pyridyl))-isopropyl]amino}(1,2,4-triazin-6-yl))phenyl]carboxamide]",C (C=10-20 uM)
11,"CC(=O)NCc1cnc(-c2cnc(NC[C@]3(c4ncccc4F)C[C@H](F)C3)nn2)s1 [N-({2-[3-({[3-fluoro-1-(3-fluoro(2-pyridyl))cyclobutyl]methyl}amino)-1,2,4-triazin-6-yl]-1,3-thiazol-5-yl}methyl)acetamide]",B (B=1-10 uM)
12,COC(=O)NCCc1ccc(NCC(C)(C)c2ccc(F)cc2)nc1 [N-[2-(6-{[2-(4-fluorophenyl)-2-methylpropyl]amino}(3-pyridyl))ethyl]methoxycarboxamide],D (D=>20 uM)
13,CC(=O)NCCc1ccc(NCC(C)(C)c2ccc(F)cc2)nc1 [N-[2-(6-{[2-(4-fluorophenyl)-2-methylpropyl]amino}-3-pyridyl)ethyl]acetamide],D (D=>20 uM)
14,COC(=O)NCc1ccc(NCC(C)(C)c2ccc(F)cc2)nc1 [N-[(6-{[2-(4-fluorophenyl)-2-methylpropyl]amino}(3-pyridyl))methyl]methoxycarboxamide],D (D=>20 uM)
15,"CC(=O)NCc1cnc(-c2cnc(NC(C)(C)c3ncccc3Cl)nn2)s1 [N-{[2-(3-{[1-(3-chloro(2-pyridyl))-isopropyl]amino}-1,2,4-triazin-6-yl)-1,3-thiazol-5-yl]methyl}acetamide]",D (D=>20 uM)
16,"CC(=O)NCc1ccc(F)c(-c2cnc(NC(C)(C)c3ncccc3F)nn2)c1 [N-{[4-fluoro-3-(3-{[1-(3-fluoro(2-pyridyl))-isopropyl]amino}(1,2,4-triazin-6-yl))phenyl]methyl}acetamide]",D (D=>20 uM)
17,"CC(C)(Nc1ncc(-c2nccs2)nn1)c1ncccc1F [[1-(3-fluoro(2-pyridyl))-isopropyl](6-(1,3-thiazol-2-yl)(1,2,4-triazin-3-yl))amine]",D (D=>20 uM)
18,"CC(C)(Nc1ncc(-c2ncc(CO)s2)nn1)c1ncccc1Cl [[2-(3-{[1-(3-chloro(2-pyridyl))-isopropyl]amino}-1,2,4-triazin-6-yl)-1,3-thiazol-5-yl]methan-1-ol]",D (D=>20 uM)

row,Structure (SMILES),Mean AC1.4
1,CC(C)=Cc1cccc(NCC(C)(C)c2ccc(F)cc2)n1 [[2-(4-fluorophenyl)-2-methylpropyl][6-(2-methylprop-1-enyl)(2-pyridyl)]amine],D (D=>20 uM)
2,CC(C)(CNc1ccc(CCNS(C)(=O)=O)cn1)c1ccc(F)cc1 [[2-(6-{[2-(4-fluorophenyl)-2-methylpropyl]amino}(3-pyridyl))ethyl](methylsulfonyl)amine],D (D=>20 uM)
3,CC(C)(CNc1cc(-c2ccc(F)cc2)ccn1)c1ccc(F)cc1 [[4-(4-fluorophenyl)(2-pyridyl)][2-(4-fluorophenyl)-2-methylpropyl]amine],D (D=>20 uM)
4,"CC(C)(Nc1ncc(-c2cc(NS(C)(=O)=O)ccc2F)nn1)c1ncccc1F [[4-fluoro-3-(3-{[1-(3-fluoro(2-pyridyl))-isopropyl]amino}(1,2,4-triazin-6-yl))phenyl](methylsulfonyl)amine]",C (C=10-20 uM)
5,"CC(C)(Nc1ncc(-c2cc(CO)ccc2F)nn1)c1ncccc1F [[4-fluoro-3-(3-{[1-(3-fluoro(2-pyridyl))-isopropyl]amino}(1,2,4-triazin-6-yl))phenyl]methan-1-ol]",C (C=10-20 uM)
6,"CC(C)(CNc1ncc(-c2ccc3[nH]nc(N)c3c2)nn1)c1ccc(F)cc1 [[6-(3-amino(1H-indazol-5-yl))(1,2,4-triazin-3-yl)][2-(4-fluorophenyl)-2-methylpropyl]amine]",A (A=<1 uM)
7,"Nc1n[nH]c2ccc(-c3cnc(NCC4(c5ncccc5F)CCC4)nn3)cc12 [[6-(3-amino(1H-indazol-5-yl))(1,2,4-triazin-3-yl)]{[(3-fluoro(2-pyridyl))cyclobutyl]methyl}amine]",B (B=1-10 uM)
8,"CC(C)(Nc1ncc(-c2cc(N)ccc2F)nn1)c1ncccc1F [[6-(3-amino-6-fluorophenyl)(1,2,4-triazin-3-yl)][1-(3-fluoro(2-pyridyl))-isopropyl]amine]",B (B=1-10 uM)
9,CC(C)(CNc1cccc(-c2ccc(F)cc2)n1)c1ccc(F)cc1 [[6-(4-fluorophenyl)(2-pyridyl)][2-(4-fluorophenyl)-2-methylpropyl]amine],D (D=>20 uM)
10,"CC(C)(Nc1ncc(-c2cc(NS(N)(=O)=O)ccc2F)nn1)c1ncccc1F [amino[4-fluoro-3-(3-{[1-(3-fluoro(2-pyridyl))-isopropyl]amino}(1,2,4-triazin-6-yl))phenyl]sulfonamide]",B (B=1-10 uM)
11,"COC(=O)c1ccc(F)c(-c2cnc(NCC(C)(C)c3ncccc3Cl)nn2)c1 [methyl 3-(3-{[2-(3-chloro(2-pyridyl))-2-methylpropyl]amino}(1,2,4-triazin-6-yl))-4-fluorobenzoate]",D (D=>20 uM)
12,"COC(=O)c1ccc(F)c(-c2cnc(NCC3(c4ncccc4Cl)CCC3)nn2)c1 [methyl 3-[3-({[(3-chloro(2-pyridyl))cyclobutyl]methyl}amino)(1,2,4-triazin-6-yl)]-4-fluorobenzoate]",B (B=1-10 uM)
13,"COC(=O)c1ccc(-c2cnc(NC(C)(C)c3ncccc3F)nn2)c(F)c1 [methyl 3-fluoro-4-(3-{[1-(3-fluoro(2-pyridyl))-isopropyl]amino}(1,2,4-triazin-6-yl))benzoate]",D (D=>20 uM)
14,"COC(=O)c1ccc(F)c(-c2cnc(NCC3(c4ccccn4)CCC3)nn2)c1 [methyl 4-fluoro-3-(3-{[(2-pyridylcyclobutyl)methyl]amino}(1,2,4-triazin-6-yl))benzoate]",C (C=10-20 uM)
15,"COC(=O)c1ccc(F)c(-c2cnc(NC(C)(C)c3cccc(S(C)(=O)=O)c3)nn2)c1 [methyl 4-fluoro-3-[3-({1-methyl-1-[3-(methylsulfonyl)phenyl]ethyl}amino)(1,2,4-triazin-6-yl)]benzoate]",D (D=>20 uM)
16,"OCc1cnc(-c2cnc(NC[C@]3(c4ncccc4F)C[C@H](F)C3)nn2)s1 [{2-[3-({[3-fluoro-1-(3-fluoro(2-pyridyl))cyclobutyl]methyl}amino)-1,2,4-triazin-6-yl]-1,3-thiazol-5-yl}methan-1-ol]",B (B=1-10 uM)
17,"OCc1cnc(-c2cnc(NCC3(c4ncccc4F)CCC3)nn2)s1 [{2-[3-({[(3-fluoro-2-pyridyl)cyclobutyl]methyl}amino)-1,2,4-triazin-6-yl]-1,3-thiazol-5-yl}methan-1-ol]",C (C=10-20 uM)
